Results on three compounds are retold here after patent US8557860B2, “Cyclopentane heptan(ENE)OIC acid, 2-heteroarylalkenyl derivatives as therapeutic agents” (Allergan, Inc., priority 2004, dated 2013).

Common to all, as to type: cell-based
The target in assay [1] is T1, hEP3A/Gqi5 (Homo sapiens, UniProt P43115).
T1 construct: expressed in transfected cells; host or cells: HEK-293(EBNA)
T1 sequence (P43115 1-390): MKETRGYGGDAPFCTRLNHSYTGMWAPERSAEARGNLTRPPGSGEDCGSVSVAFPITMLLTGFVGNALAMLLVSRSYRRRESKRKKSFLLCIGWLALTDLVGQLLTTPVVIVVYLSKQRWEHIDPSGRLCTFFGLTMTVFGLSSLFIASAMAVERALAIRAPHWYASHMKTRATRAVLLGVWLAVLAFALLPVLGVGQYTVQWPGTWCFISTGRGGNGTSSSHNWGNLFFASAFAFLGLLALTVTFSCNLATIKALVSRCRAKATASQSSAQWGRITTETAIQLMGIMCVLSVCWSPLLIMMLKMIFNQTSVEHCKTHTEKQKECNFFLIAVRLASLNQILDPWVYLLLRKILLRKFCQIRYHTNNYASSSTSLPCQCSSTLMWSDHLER
Description: FLIPR calcium signal study, hEP3A/Gqi5. The note with it: HEK-293(EBNA) cells, recombinant human receptor, read-out: FUNCTIONAL DATA (EC50 nm) HEP3A. As to the method:
(§1) HEK-293(EBNA) cells, stably expressing one type or subtype of recombinant human prostaglandin receptors (prostaglandin receptors expressed: hDP/Gqs5; hEP1; hEP2/Gqs5; hEP3A/Gqi5; hEP4/Gqs5; hFP; hIP; hTP), were cultured in 100 mm culture dishes in high-glucose DMEM medium containing 10% fetal bovine serum, 2 mM 1-glutamine, 250 μg/ml geneticin (G418) and 200 μg/ml hygromycin B as selection markers, and 100 units/ml penicillin G, 100 μg/ml streptomycin and 0.25 μg/ml amphotericin B.
(§2) Cells were seeded at a density of 5×10^4 cells per well in Biocoat® Poly-D-lysine-coated black-wall, clear-bottom 96-well plates (Becton-Dickinson) and allowed to attach overnight in an incubator at 37° C. Cells were then washed two times with HBSS-HEPES buffer (Hanks Balanced Salt Solution without bicarbonate and phenol red, 20 mM HEPES, pH 7.4) using a Denley Cellwash plate washer (Labsystems). After 45 minutes of dye-loading in the dark, using the calcium-sensitive dye Fluo-4 AM at a final concentration of 2 μM, plates were washed four times with HBSS-HEPES buffer to remove excess dye leaving 100 μl in each well. Plates were re-equilibrated to 37° C. for a few minutes.
(§3) Cells were excited with an Argon laser at 488 nm, and emission was measured through a 510-570 nm bandwidth emission filter (FLIPR™, Molecular Devices, Sunnyvale, Calif.). Drug solution was added in a 50 μl volume to each well to give the desired final concentration. The peak increase in fluorescence intensity was recorded for each well. On each plate, four wells each served as negative (HBSS-HEPES buffer) and positive controls (standard agonists: BW245C (hDP); PGE2 (hEP1; hEP2/Gqs5; hEP3A/Gqi5; hEP4/Gqs5); PGF2α (hFP); carbacyclin (hIP); U-46619 (hTP), depending on receptor). The peak fluorescence change in each drug-containing well was then expressed relative to the controls.
(§4) Compounds were tested in a high-throughput (HTS) or concentration-response (CoRe) format. […]

For assay [2], the target named is T2, hFP (Homo sapiens, UniProt P43088).
T2 construct: expressed in transfected cells; host or cells: HEK-293(EBNA)
Description: FLIPR calcium signal study, hFP. The note with it: HEK-293(EBNA) cells, recombinant human receptor, read-out: FUNCTIONAL DATA (EC50 nm) HFP. The procedure:
as §1
(§5) Cells were seeded at a density of 5×10^4 cells per well in Biocoat® Poly-D-lysine-coated black-wall, clear-bottom 96-well plates (Becton-Dickinson) and allowed to attach overnight in an incubator at 37° C. Cells were then washed two times with HBSS-HEPES buffer (Hanks Balanced Salt Solution without bicarbonate and phenol red, 20 mM HEPES, pH 7.4) using a Denley Cellwash plate washer (Labsystems). […]
(§6) Cells were excited with an Argon laser at 488 nm, and emission was measured through a 510-570 nm bandwidth emission filter (FLIPR™, Molecular Devices, Sunnyvale, Calif.). […] The peak increase in fluorescence intensity was recorded for each well. […] The peak fluorescence change in each drug-containing well was then expressed relative to the controls. […]

Assay [3] has as its target T3, hTP (Homo sapiens, UniProt P21731).
T3 construct: expressed in transfected cells; host or cells: HEK-293(EBNA)
T3 sequence (P21731 1-343): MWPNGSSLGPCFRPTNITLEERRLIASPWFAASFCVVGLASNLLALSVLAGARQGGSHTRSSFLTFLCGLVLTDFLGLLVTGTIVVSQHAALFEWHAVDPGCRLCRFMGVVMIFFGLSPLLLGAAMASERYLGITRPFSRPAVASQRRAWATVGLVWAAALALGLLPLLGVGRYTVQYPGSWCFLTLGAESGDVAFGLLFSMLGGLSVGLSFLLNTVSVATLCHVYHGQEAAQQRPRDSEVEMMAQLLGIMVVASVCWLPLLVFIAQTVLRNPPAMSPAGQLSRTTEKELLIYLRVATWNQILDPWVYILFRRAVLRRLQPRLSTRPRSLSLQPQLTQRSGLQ
Description: FLIPR calcium signal study, hTP. The note with it: HEK-293(EBNA) cells, recombinant human receptor, read-out: FUNCTIONAL DATA (EC50 nm) HTP. As to the method: as §1, §2, §3, §4

For assay [4], the target named is T4, hEP1 (Homo sapiens, UniProt P34995).
T4 construct: expressed in transfected cells; host or cells: HEK-293(EBNA)
T4 sequence (P34995 1-402): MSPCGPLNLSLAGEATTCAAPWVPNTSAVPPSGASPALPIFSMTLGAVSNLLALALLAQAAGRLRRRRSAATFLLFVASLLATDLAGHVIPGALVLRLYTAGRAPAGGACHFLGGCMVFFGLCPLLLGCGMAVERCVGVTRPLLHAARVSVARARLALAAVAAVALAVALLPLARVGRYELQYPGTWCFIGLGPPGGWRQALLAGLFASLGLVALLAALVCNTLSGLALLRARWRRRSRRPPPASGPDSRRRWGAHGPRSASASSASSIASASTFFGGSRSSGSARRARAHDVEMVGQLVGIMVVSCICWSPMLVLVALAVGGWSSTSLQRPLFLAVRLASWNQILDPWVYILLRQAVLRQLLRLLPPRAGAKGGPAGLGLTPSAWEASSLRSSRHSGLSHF
Description: FLIPR calcium signal study, hEP1. The note with it: HEK-293(EBNA) cells, recombinant human receptor, read-out: FUNCTIONAL DATA (EC50 nm) HEP1. The procedure:
as §1, §5, §6

Assay [5] addresses T5, hEP4/Gqs5 (Homo sapiens, UniProt P35408).
T5 construct: expressed in transfected cells; host or cells: HEK-293(EBNA)
Put plainly: FLIPR calcium signal study, hEP4/Gqs5. The note with it: HEK-293(EBNA) cells, recombinant human receptor, read-out: FUNCTIONAL DATA (EC50 nm) HEP4. As to the method:
as §1, §5, §6

T5 sequence (P35408 whole entry): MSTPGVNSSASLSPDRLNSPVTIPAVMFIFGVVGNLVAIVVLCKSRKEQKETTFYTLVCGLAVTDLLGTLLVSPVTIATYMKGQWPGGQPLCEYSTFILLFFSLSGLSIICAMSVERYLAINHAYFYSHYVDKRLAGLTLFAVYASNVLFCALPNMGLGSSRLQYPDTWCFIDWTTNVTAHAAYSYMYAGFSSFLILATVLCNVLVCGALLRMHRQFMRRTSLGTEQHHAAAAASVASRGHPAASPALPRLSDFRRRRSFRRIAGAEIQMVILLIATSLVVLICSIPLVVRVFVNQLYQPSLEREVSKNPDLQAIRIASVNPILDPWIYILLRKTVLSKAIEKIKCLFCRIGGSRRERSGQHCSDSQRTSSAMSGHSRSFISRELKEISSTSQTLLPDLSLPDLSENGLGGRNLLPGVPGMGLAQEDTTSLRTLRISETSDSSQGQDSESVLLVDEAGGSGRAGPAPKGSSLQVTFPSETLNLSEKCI
T2 sequence (P43088 whole entry): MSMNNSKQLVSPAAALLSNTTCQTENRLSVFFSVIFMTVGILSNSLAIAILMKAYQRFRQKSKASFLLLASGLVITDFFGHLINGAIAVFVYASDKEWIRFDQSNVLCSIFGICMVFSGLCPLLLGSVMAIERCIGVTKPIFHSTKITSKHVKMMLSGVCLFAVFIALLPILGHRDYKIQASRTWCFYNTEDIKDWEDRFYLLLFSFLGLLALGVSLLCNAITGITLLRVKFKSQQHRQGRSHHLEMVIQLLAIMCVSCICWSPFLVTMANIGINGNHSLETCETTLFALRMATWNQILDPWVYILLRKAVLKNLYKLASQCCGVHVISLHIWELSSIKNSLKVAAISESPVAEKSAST

With `COC(=O)CCC/C=C\C[C@H]1C(O)CC[C@@H]1/C=C/[C@@H](O)CCc1cc(Br)c(C)s1` (single isomer, unassigned), the EC50 is above 100 µM in assay [1], 2070 nM in assay [2] and 1870 nM in assay [3].

With `Cc1sc(CC[C@H](O)/C=C/[C@H]2CCC(O)[C@@H]2C/C=C\CCCC(=O)O)cc1Br` (single isomer, unassigned) [drawing 39], the EC50 in assay [1] was 0.793 µM; in assay [3], 96 nM; in assay [4] it was above 100 µM; in assay [5], above 100000 nM.

For `Cc1sc(CC[C@H](O)/C=C/[C@H]2CCC(O)[C@@H]2C/C=C\CCCC(=O)O)cc1Br` (single isomer, unassigned) [drawing 40], the EC50 in assay [1] is above 100 µM; in assay [2], above 100000 nM; in assay [3] it was above 100000 nM; in assay [5], 832 nM.

The EC50 is the midpoint of the concentration-response curve.
